As for `CN(Cc1cc(C(=O)OC(C)(C)C)ccc1[N+](=O)[O-])C(=O)OC(C)(C)C`, the melting point lay in the range of 56 to 58 °C.

For `O=C(O)c1oc(-c2ccccc2)cc(=O)c1Cl`, the melting point worked out at 250 °C.

As for `CCCCNc1cc(C(=O)O)cc(S(=O)(=O)NCCCC)c1Sc1ccc(N)cc1`, the melting point was 198 to 200 °C.

On to `COc1cc2c(cc1O)CCN(C(=O)c1ccccc1OC)C2`, for which the melting point is 176 to 177 °C.

In turn, `O=C(O)c1cn2c3c(cccc3c1=O)CCC2` returned a melting point of 256 to 258 °C.

Compound `COc1ccccc1N1CCN(CC(O)COc2cccc(C(=O)C=CN(C)C)c2)CC1` (configuration not stated) registered a melting point of 131 °C.

The compound `COc1ccc(C(=O)c2oc3cccc(O)c3c2C)cc1` came in with a melting point of 192 to 195 °C.

`COC(=O)[C@H](O)Cc1ccccc1`: the melting point was 46 to 47 °C.

With `CSC(Nc1cccc(C#N)c1)=C(C#N)S(=O)(=O)c1ccc(Cl)cc1`, the melting point was in the range of 168 to 170 °C.

As for `CCc1nc2c(C)cc(C)nc2n1-c1ccc(CC(C)NC(=O)NS(=O)(=O)c2ccc(C)cc2)cc1` (configuration not stated), the melting point amounted to 128 °C.

In turn, `C/C(=C\c1ccc(OCc2nc(-c3ccc(C(F)(F)F)cc3)oc2C)cc1)Cn1oc(=O)[nH]c1=O` gave a melting point of 90 to 91 °C.

For `Cc1cccc(NC(=O)NCC(=O)N(CC(=O)N(C)c2ccc(F)cc2)c2ccccc2)c1`, the melting point amounted to 135 °C.

In turn, `CC#CC(=O)c1c(-c2ccc(F)cc2)nn2c(Cl)cccc12` registered a melting point of 182 to 183 °C.

In turn, `c1ccc(-c2nnn[nH]2)c(-c2ccc(CNc3ccnc4ccnn34)cc2)c1` showed a melting point of 150 to 155 °C.

On to `CC(c1cc2ccccc2s1)N(OC(=O)OC(C)(C)C)C(N)=O` (configuration not stated), for which the melting point was 120 to 122 °C.

As for `O=C(O)C(c1ccccc1)n1nnc(C(c2ccccc2)c2ccccc2)n1` (configuration not stated), the melting point lay within 158 to 161 °C.

`COc1cc2c(c(Cl)c1Cl)C(=O)C(CCCCl)C2` (configuration not stated) had a melting point of 130 to 132 °C.

Take `CCOC(=O)c1nn(-c2ccccc2)c2c1CSc1ccccc1-2`: the melting point was in the range of 139 to 141 °C.

For the compound `CC(C#N)(c1ccc(Cl)c(C(F)(F)F)c1)c1ccc([N+](=O)[O-])cc1Cl` (configuration not stated), the melting point turned out to be 162 °C.

In turn, `CN1Cc2c(-c3noc(CCl)n3)ncn2-c2ccc(Cl)cc2C1=O` displayed a melting point of 229 °C.

`CCOC(=O)c1cn(-c2nc(NC(C)(C)C)c(F)cc2F)c2c(Br)c(F)c(F)cc2c1=O` returned a melting point of 198 to 203 °C.

`CC=CC(=O)CS(=O)(=O)C(c1ccc(Cl)cc1)c1ccc(Cl)cc1`: the melting point is 114 to 116 °C.

As to `Cc1nc(-c2ccccc2)nc(NCC(=O)N(C)c2ccccc2)c1Br`, the melting point fell in the range of 160 to 162 °C.

Turning to `COC(=O)c1ccc(C(=O)C2=C(C)C(=O)c3ccccc3C2=O)cc1`, the melting point was 162 °C.

Regarding `CCOC(=O)c1cc(OC(C)=O)c2c(OC)ccc(OC)c2c1`, the melting point was 110 to 112 °C.

For the compound `COCCOc1ccc(/C=C/C(=O)O)c(OC2CCCCC2)c1`, the melting point fell in the range of 102 to 114 °C.

`O=C(O)Cc1cc(C(=O)Cc2ccccc2Cl)ccc1O` yielded a melting point of 230 °C.

In the case of `O=C(O)c1c(I)c(I)c(C(=O)O)c(I)c1I`, the melting point was 205 to 206 °C.

With `OC(Cn1cncn1)(c1ccc(F)cc1F)C(c1ccc(OCc2ccccc2)cc1)n1cncn1` (configuration not stated), the melting point was 144 to 147 °C.

Consider `COc1ccc(CCNC(=O)CNc2cc(Cl)ccc2C(N)=O)cc1OC`, for which the melting point came out at 168 °C.

In turn, `Cc1ccc(Oc2ccc(Cl)cn2)c(Oc2ccc(Cl)cn2)c1` had a melting point of 87 to 90 °C.

`O=C(O)c1cn(-c2ccc(Br)cc2)c(-c2ccc(Cl)cc2Cl)n1` yielded a melting point of 138 to 142 °C.

`CN(c1cc(OC(F)(F)F)cc2cc(C(=O)NCCSC(c3ccccc3)(c3ccccc3)c3ccccc3)[nH]c12)S(=O)(=O)c1cccs1` displayed a melting point of 222 to 223 °C.

`O=C(O)c1cccc(Oc2ncc(C(F)(F)F)cc2Cl)c1` showed a melting point of 158 °C.

Take `Cc1ccc2c(c1)oc1c(C(=O)NN3CCOCC3)nn(-c3ccc(Cl)cc3Cl)c12`: the melting point fell in the range of 178 to 180 °C.

For the compound `CN(C)c1[nH]c(=S)n(C2CCc3ccccc3C2)c1N(C)C` (configuration not stated), the melting point was 182 to 184 °C.

Turning to `O=C1O[C@@H](CNC(=S)C(F)F)CN1c1ccc(C2CCS(=O)CC2)c(F)c1` (some centres not stated), the melting point lay within 192 to 194 °C.

In turn, `COc1cc(-c2csc(Br)c2Br)cc2oc(=O)c(C)c(C)c12` displayed a melting point of 194 to 196 °C.

Compound `CCc1ccc2c(O)c(C(=O)O)cnc2c1` returned a melting point of 175 to 178 °C.

Consider `CCCCc1oc2ccccc2c1C(=O)NCc1ccc2c(-c3ccc(Cl)cc3)c(O)ccc2c1`, for which the melting point is 122 to 124 °C.

For the compound `COC(=O)CCC(=O)c1ccc2c(c1)CC(CO)O2` (configuration not stated), the melting point was in the range of 70 to 72 °C.

In turn, `N[C@@H](CCC(=O)O)C(=O)N[C@@H](Cc1ccccc1)C(=O)OCc1ccccc1` returned a melting point of 103 to 104 °C.

As to `CCc1cccc(CC)c1NC(=O)NC1CCC(c2ccccc2)CC1` (configuration not stated), the melting point is 247 to 249 °C.

Regarding `Cc1ccn2c(C(=O)NCc3ccccc3)c(C)nc2c1`, the melting point is 166 to 167 °C.

`CCN(C)C(=O)c1cc(-c2ccccc2)c2sccc2c1` gave a melting point of 93 °C.

As for `CN=C1SCC(O)(c2ccc(Cl)c(S(=O)(=O)NCc3cccnc3)c2)N1C` (configuration not stated), the melting point was in the range of 152 to 153 °C.

In turn, `CCOC(CNC(=S)Nc1ccccn1)OCC` had a melting point of 132 to 133 °C.

In turn, `CN1CCN(c2nn(-c3ccc(Cl)cc3Cl)c3ccccc23)CC1` displayed a melting point of 150 to 152 °C.

With `O=C(CN(Cc1ccc(OCc2ccccc2)cc1)C(=O)[C@H](Cc1c[nH]cn1)NC(=O)OCc1ccccc1)NCCCCc1ccccc1`, the melting point lay within 58 to 61 °C.

Compound `CC(=O)Nc1cccc(-c2ccccc2S(=O)(=O)Nc2onc(C)c2C)c1` returned a melting point of 168 to 171 °C.

Turning to `CCCCNC(=O)Oc1ccc(Oc2ccc(C)cc2)cc1`, the melting point is 64 to 66 °C.

Consider `CCC1(O)CC(=O)OCc2c1cc1n(c2=O)Cc2c-1nc1ccccc1c2CCC(C)C` (configuration not stated), for which the melting point turned out to be 263 °C.

In turn, `Cc1nc(-n2cc(CCc3ccccc3)nn2)sc1C(=O)NCc1ccccc1` displayed a melting point of 167 to 170 °C.

For the compound `COc1c(C)c2c(c(O)c1C/C=C(\C)C(O)C(C)(C)C(=O)O)C(=O)OC2` (configuration not stated), the melting point lay within 180 to 181 °C.

In turn, `OCC1Cc2c(F)ccc(Br)c2O1` (configuration not stated) returned a melting point of 40 to 43 °C.

`Cc1ccc(N2C(=O)C(O)=C(C(=O)c3ccc(C(C)C)cc3)C2c2ccc(Oc3ccccn3)cc2)nn1` (configuration not stated) came in with a melting point of 280 °C.

For the compound `Cc1c(C)c2c(c(C)c1NC(=O)NCCN(C)C)C(c1ccc(C(C)C)cc1)CO2` (configuration not stated), the melting point lay in the range of 133 to 134 °C.

Turning to `C=CC(OC(C)OCC)C(NC(=O)OC(C)(C)C)c1ccccc1` (configuration not stated), the melting point lay in the range of 66 to 72 °C.

For `Nc1ccc(S(=O)(=O)Nc2cccc3c(Cl)c[nH]c23)cc1`, the melting point was in the range of 174 to 176 °C.

Compound `CCCc1ccc(-c2ncc(C#N)cn2)cc1` returned a melting point of 126 °C.

`COc1nc(Br)nc(OC)n1` displayed a melting point of 118 to 120 °C.

As to `CN1CNC(=S)N(c2ccc(F)cc2)C1`, the melting point fell in the range of 173 to 175 °C.

`CCOC(=O)c1cc(C(=O)C(C)C)c(=O)[nH]c1C(=O)OCC`: the melting point lay in the range of 116 to 118 °C.

For `CN1C[C@H](CN2CCN(C(c3ccccc3)c3ccccc3)CC2)C=C2c3cccc4c3c(cn4C)C[C@H]21`, the melting point was 172 to 175 °C.

As for `CC(C)OP(=O)(/C=C/CCn1cnc2c(Cl)nc(N)nc21)OC(C)C`, the melting point was 150 °C.

Compound `CC1(C)C=C(c2c[nH]c(-c3ccc(F)cc3)c2-c2ccncc2)CC(C)(C)N1` displayed a melting point of 258 to 259 °C.

As for `CN(C)CCCCCCc1nn(CC(N)=O)c(-c2ccccc2)c1-c1ccccc1`, the melting point was in the range of 60 to 63 °C.

`FC(F)(F)Sc1ccc(C=Cc2nc(CCl)cs2)cc1`: the melting point is 133 to 134 °C.

`COc1ccc2c(c1)c(C(=O)OCc1ccccc1)nn2Cc1ccccc1` yielded a melting point of 107 to 109 °C.

`CC(C)(OCCOCc1nn(Cc2ccccc2)c2ccccc12)C(=O)O` had a melting point of 94 to 95 °C.

With `Cc1c(C(=O)c2ccc(Cl)c(S(N)(=O)=O)c2)sc2ccccc12`, the melting point is 210 °C.

Take `c1ccc(CCOCCOc2ccc(OCc3ccccc3)cc2)cc1`: the melting point fell in the range of 46 to 49 °C.

Regarding `COc1ccc(Cc2ccc3[nH]c4cnn(C)c4c(=O)c3c2)cc1`, the melting point lay in the range of 248 to 249 °C.

Regarding `CCCCCCCCCCCCc1ccc2nc3c(c(O)c2c1)CCCC3`, the melting point fell in the range of 225 to 226 °C.

Turning to `COc1ccc2c(c1)C1=NNC(c3ccncc3)C1CCC2` (configuration not stated), the melting point is 162 to 166 °C.

Consider `Nc1nc2ccccc2c2c1ncn2CCOCCCc1ccccc1C(=O)O`, for which the melting point lay in the range of 186 to 188 °C.

Consider `CCCOc1ccc2c(c1)C(N(C)S(C)(=O)=O)C(O)C(C)(C)O2` (configuration not stated), for which the melting point was 149 to 151 °C.

Turning to `N#Cc1ccc(O[C@@H]2c3ncccc3C[C@H]2N2CCC[C@@H](N)C2)c(Cl)c1`, the melting point turned out to be 180 °C.

As for `Cc1oc(-c2ccccc2)nc1CCC(=O)c1ccc(CCC=O)cc1`, the melting point lay in the range of 92 to 93 °C.

Turning to `Fc1ccc(/C=C/c2nc(COc3ccc(CCCCn4ccnn4)cc3)co2)c(F)c1`, the melting point lay in the range of 115 to 117 °C.

Consider `Oc1cc2c3ccc(O)c(O)c3n(Cc3ccccc3)c2cc1O`, for which the melting point is 241 to 246 °C.

Consider `CC(C)(C)[Si](C)(C)OC1C(n2ccc(=O)[nH]c2=O)OC(CO)C1(O)C#C[Si](C)(C)C` (configuration not stated), for which the melting point was in the range of 188 to 189 °C.

On to `O=C(Nc1cccc(C(F)(F)F)c1)NC1N=C(c2ccccc2F)c2ccccc2N(CC(=O)N2CC3CCC(CC3)C2)C1=O` (racemic), for which the melting point lay within 226 to 227 °C.

`O=C(NCc1ncc(C(F)(F)F)cc1Cl)c1ccc(Br)o1` yielded a melting point of 77.8 °C.

Turning to `CCc1cc(NCc2ccc(-c3ccccc3C#N)cc2)n2ncc([N+](=O)[O-])c2n1`, the melting point lay in the range of 205 to 207 °C.

`CCCc1nsc(Oc2cccc(NC(=O)OC(C)C)c2)n1` came in with a melting point of 64 °C.

On to `CCC1CCCCN(C(=O)C2Cc3ccccc3N2c2ccc(=O)n(C)n2)C1` (configuration not stated), for which the melting point fell in the range of 90 to 95 °C.

By melting point is commonly meant the temperature of the solid-liquid transition.

(Values after a melting point compilation (Tetko et al.; mined from patent text by program, amines drawn as free bases though some values may be those of a salt).)
